Source: patent US20100048714A1, “Methods and Compositions Related to Inhibition of Ceramide Synthesis” (University of Utah Research Foundation, priority 2006, published 2010)

Experiments:
Sprague-Dawley rats [1] = test: Liver ceramide and ceramide-enzyme expression in dexamethasone-treated rats; assay type: in vivo, rat; settings: dexamethasone 40 μg/Kg IP every 12 hours for 36 hours; myriocin 300 μg/Kg IP for two weeks prior
Protocol: (A) Sprague-Dawley rats were treated with myriocin (300 μg/Kg, IP, solid bars) or saline (open bars) for two weeks prior to giving administering dexamethasone (40 μg/Kg, IP) or vehicle (5% ethanol) every 12 hours for 36 hours. Animals were euthanized by CO2 inhalation, livers were removed, and ceramide levels were assessed as described in SOM-Methods. Shown are mean ceramide levels+/−S.E.M, n=6 per group. The asterisk denotes that the sample was statistically different from vehicle-treated controls, p<0.05, student's t-test. (B) Livers were obtained as in A, above, and protein and mRNA were extracted as described in SOM-Methods. Levels of transcripts (solid bars) encoding serine palimitoyl transferase isoforms 1 and 2 (SPT1 and SPT2), dihydroceramide synthases (DCS) TL1, UOG, and TRH3, glucosylceramide synthase (GCS), and acid ceramidase (AC) transcripts were obtained by reverse-transcriptase polymerase chain reaction, normalized to β-actin. SPT2 protein levels (white bars) were detected by immunoblotting with an antibody from Cayman Chemicals (Ann Arbor, Mich.) and quantified on a Kodak Image Station 2000R (Rochester, N.Y.). […] (E) The glucose infusion rate required to maintain normal glycemia during insulin infusion (4mU/kg/min) was calculated as the average infusion rate during the 60 minute steady state. […]

Sprague-Dawley rats [2] = test: Glucose tolerance test (glucose 1 g/kg IP) in dexamethasone-treated rats; assay type: in vivo, rat
Protocol: (A) Sprague-Dawley rats were treated with myriocin (300 μg/Kg, IP, solid bars) or saline (open bars) for two weeks prior to giving administering dexamethasone (40 μg/Kg, IP) or vehicle (5% ethanol) every 12 hours for 36 hours. Animals were euthanized by CO2 inhalation, livers were removed, and ceramide levels were assessed as described in SOM-Methods. Shown are mean ceramide levels+/−S.E.M, n=6 per group. The asterisk denotes that the sample was statistically different from vehicle-treated controls, p<0.05, student's t-test. (B) Livers were obtained as in A, above, and protein and mRNA were extracted as described in SOM-Methods. Levels of transcripts (solid bars) encoding serine palimitoyl transferase isoforms 1 and 2 (SPT1 and SPT2), dihydroceramide synthases (DCS) TL1, UOG, and TRH3, glucosylceramide synthase (GCS), and acid ceramidase (AC) transcripts were obtained by reverse-transcriptase polymerase chain reaction, normalized to β-actin. SPT2 protein levels (white bars) were detected by immunoblotting with an antibody from Cayman Chemicals (Ann Arbor, Mich.) and quantified on a Kodak Image Station 2000R (Rochester, N.Y.). Data represent the fold-change in transcript or protein in dexamethasone-treated animals relative to vehicle controls. […] (C and D) Rats were challenged with glucose (1 g/kg) given intraperitoneally (IP) following treatment with dexamethasone (squares), ethanol carrier (triangles), myriocin (open shapes), or saline (solid shapes) as in A, above. Tail vein blood (3 μl) was sampled for glucose (C)(using the Glucometer Elite from Bayer Corp., Tarrytown, N.Y.) or insulin (D) (using an Elisa kit from Linco Diagnostics, Springfield, Mo.). […] (E-G) Hyperinsulinemic euglycemic clamps were performed on animals (n=4 per group) treated as in A, above, as described in SOM-Methods. Data from animals receiving myriocin are depicted in solid bars. (E) The glucose infusion rate required to maintain normal glycemia during insulin infusion ([…]) was calculated as the average infusion rate during the 60 minute steady state. (F) Hepatic glucose output was estimated by the disappearance of [^14C] glucose from a bolus dose given during the steady state minus the glucose infusion rate. (G) Disappearance of a bolus dose of [^3H] 2-deoxyglucose from the bloodstream was used to estimate the rate of whole body glucose uptake.
Tail vein blood (3 μl) was sampled for glucose determination (Hitachi 911 clinical chemistry analyzer, Roche, Indianapolis, Ind. or Glucometer Elite, Bayer Corp., Tarrytown, N.Y.)-30 minutes, immediately before and 15, 30, 45, 60, 90, and 120 min after glucose administration. Additionally, serum was collected and analyzed for insulin by Elisa (Linco Diagnostics, Springfield, Mo.).

[3] = system: Zucker Diabetic Fatty (ZDF) rats; test: Myriocin treatment of Zucker Diabetic Fatty rats; assay type: in vivo, rat
Zucker fa/fa rat = test: Myriocin in non-diabetic insulin resistance model, Zucker fa/fa rat; assay type: in vivo
DIO mice = test: Myriocin in non-diabetic insulin resistance model, DIO mice; assay type: in vivo
Sprague dawley rats = test: Hyperinsulinemic euglycemic clamps of dexamethasone treated rats; assay type: in vivo, rat; settings: plasma, 60 minute steady state, mean ± standard error, n=4
soleus muscles = test: Isolated soleus muscle strips incubated with free fatty acids; settings: cycloserine 1 mM or myriocin 10 μM
[4] = dexamethasone with or without myriocin pretreatment
[5] = glucose challenge 1 g/kg IP, n=6 per group, p<0.05
[6] = treatment starting at week 8, vs vehicle

SMILES: CCCCCCC(=O)CCCCCC/C=C/C[C@@H](O)[C@H](O)[C@@](N)(CO)C(=O)O [Myriocin]
- ceramide levels in the liver (Sprague-Dawley rats [1]): Reducing ceramide levels
- glucose disposal / glucose intolerance in glucose tolerance test (Sprague-Dawley rats [2]; [4]): significantly negated glucocorticoid-induced glucose intolerance
- insulin levels during glucose tolerance test (Sprague-Dawley rats [2]; [4]): normalized circulating insulin concentrations
- area under the curve, glucose (Sprague-Dawley rats [2]; [5]): significantly lowered the area under the curve
- area under the curve, insulin (Sprague-Dawley rats [2]; [5]): significantly lowered the area under the curve
- age until which the improvement in blood glucose persisted ([3]; ZDF rats): at least 16 weeks
- ceramides in liver, soleus and serum ([3]; ZDF rats): reduced levels of the sphingolipid in all these tissues
- tolerability ([3]; ZDF rats and lean controls, myriocin for up to 6 weeks): well-tolerated
- glucose homeostasis ([3]; male ZDF rats, myriocin 0.3 mg/kg IP every other day (FIG. 4 legend)): markedly improved glucose homeostasis
- side effects ([3]; rat, in vivo): no apparent side effects
- onset of diabetes ([3]; treatment starting at week 8): prevented the onset of diabetes
- plasma glucose levels [3, 6]: reduced
- triglyceride levels [3, 6]: reduced
- glucose homeostasis (Zucker fa/fa rat): improved glucose homeostasis
- insulin levels (Zucker fa/fa rat): lowered insulin levels
- glucose homeostasis (DIO mice): improved glucose homeostasis
- insulin levels (DIO mice): lowered insulin levels
- Glucose, During Clamp (Sprague dawley rats; Dexamethasone-treated (Saline or Myriocin)): 129.3 ± 3.7 mg/dL
- Glucose, During Clamp (Sprague dawley rats; Dexamethasone: Control): 130.5 ± 2.9 mg/dL
- linoleate effects on 2-DOG uptake (soleus muscles; 1 mM linoleate): did not alter linoleate effects
- linoleate effects on DAG accumulation (soleus muscles; 1 mM linoleate): did not alter linoleate effects
- DAG in palmitate-treated muscles (soleus muscles; 1 mM palmitate): without affecting DAG
- palmitate effect on insulin-stimulated 2-deoxyglucose uptake (soleus muscles; 1 mM palmitate): completely negated the antagonistic effects of palmitate
- palmitate-induced ceramide accumulation (soleus muscles; 1 mM palmitate): prevented palmitate-induced ceramide accumulation
